Where only a bound is given, the exact number is not on record here.

Consider 16 compounds from patent publication US7943770B2, “Fused quinoline derivative and use thereof” (Takeda Pharmaceutical Company Limited, priority 2004, dated 2011).

One test concerns the target T1, hNK2 receptor (Homo sapiens, UniProt P21452).
T1 construct: host or cells: CHO cells
T1 sequence (P21452 1-398): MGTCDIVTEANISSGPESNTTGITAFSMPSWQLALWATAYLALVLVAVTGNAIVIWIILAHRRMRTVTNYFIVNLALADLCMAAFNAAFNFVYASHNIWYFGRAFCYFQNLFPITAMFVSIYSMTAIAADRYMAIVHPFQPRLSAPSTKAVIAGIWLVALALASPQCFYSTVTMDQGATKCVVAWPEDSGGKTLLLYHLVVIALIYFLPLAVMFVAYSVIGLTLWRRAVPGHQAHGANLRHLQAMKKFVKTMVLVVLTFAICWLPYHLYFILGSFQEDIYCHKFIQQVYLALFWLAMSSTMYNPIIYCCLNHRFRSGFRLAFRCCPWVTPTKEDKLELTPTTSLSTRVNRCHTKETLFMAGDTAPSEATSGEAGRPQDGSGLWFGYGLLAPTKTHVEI
Kind of test: Antagonistic activity determined by intracellular calcium concentration (FLIPR) using Neurokinin A and hNK2 receptor-expressing CHO cell. In kind it is cell-based. The settings on record: test compound 1 μM; increase in intracellular calcium due to Neurokinin A, hNK2 receptor-expressing CHO cells. On the procedure:
hNK2 receptor-expressing CHO cells were seeded on a 96 well plate at 3×10^4 cell/well and cultured for 24 hrs. Then the medium was aspirated and 20 mM HEPES (pH 7.4)—HBSS buffer (50 μL) was added. Thereto was added prepared 1× Reagent buffer (50 μL, FLIPR Calcium Assay Kit: Molecular Devices Corporation, Japan) and the mixture was reacted at 37° C. for 1 hr. A test compound diluted with 20 mM HEPES (pH 7.4)—HBSS buffer (50 μL, containing 0.4% dimethyl sulfoxide) was added to examine antagonistic activity of the test compound. Thereafter, 20 nM Neurokinin A solution (50 μL) was added, and change in the intracellular calcium concentration were measured by FLIPR (Molecular Devices Corporation, Japan).
Turning to `O=C(N[C@@H]1CCCC[C@@H]1C(=O)N1CC[C@@H]2[C@H](c3ccccc3)Nc3ccccc3[C@@H]21)c1ccccc1` [Compound of Example 1], the “Assay of Antagonistic activity Inhibitory rate (%)” value was determined as 45%.

The same test, now with this note: test compound 10 μM; increase in intracellular calcium due to Neurokinin A, hNK2 receptor-expressing CHO cells.
As for `O=C(N[C@@H]1CCCC[C@@H]1C(=O)N1CC[C@@H]2[C@H](c3ccccc3)Nc3ccccc3[C@@H]21)c1ccccc1` [Compound of Example 1], the “Assay of Antagonistic activity Inhibitory rate (%)” value came out at 97%.

Another test addresses T1, hNK2 receptor. Kind of test: Radio-ligand ([125I]-NKA) receptor binding inhibitory activity using membrane fraction of hNK2 receptor-expressing CHO cell. The settings on record: membrane fraction of hNK2 receptor-expressing CHO cells, 25° C., 30 min. The gist of the method: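 Membranes from hNK2-expressing CHO cells (20 μg/mL suspension) incubated with test compound and [125I]-NKA ([…] solution as added) in Tris-HCl pH 7.4 with BSA, protease inhibitors, 3 mM MnCl2, 25 °C, 30 min. Bound radioactivity by GF/C filtration and scintillation; inhibition expressed relative to specific binding (total minus unlabeled-NKA non-specific).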
Usually IC50 stands for the concentration that inhibits the measured activity by half. `O=C(/C=C/c1cccs1)N[C@@H]1CCCC[C@@H]1C(=O)N1CC[C@@H]2[C@H](c3ncc[nH]3)Nc3ccccc3[C@@H]21` [Example 300, (2E)-N-((1R,2S)-2-{[(3aR,4R,9bR)-4-(1H-Imidazol-2-yl)-2,3,3a,4,5,9b-hexahydro-1H-pyrrolo[3,2-c]quinolin-1-yl]carbonyl}cyclohexyl)-3-thien-2-ylacrylamide] showed an IC50 of less than 1 nM.
Same read-out and setting: then `O=C(N[C@@H]1CCCC[C@@H]1C(=O)N1CC[C@@H]2[C@H](c3ncc[nH]3)Nc3ccccc3[C@@H]21)c1ccc(F)c(Cl)c1` [Example 301, 3-Chloro-4-fluoro-N-((1R,2S)-2-{[(3aR,4R,9bR)-4-(1H-imidazol-2-yl)-2,3,3a,4,5,9b-hexahydro-1H-pyrrolo[3,2-c]quinolin-1-yl]carbonyl}cyclohexyl)benzamide], with less than 1 nM; and `O=C(N[C@@H]1CCCC[C@@H]1C(=O)N1CC[C@@H]2[C@H](c3ncc[nH]3)Nc3ccccc3[C@@H]21)c1ccccc1F` [Example 302, 2-Fluoro-N-((1R,2S)-2-{[(3aR,4R,9bR)-4-(1H-imidazol-2-yl)-2,3,3a,4,5,9b-hexahydro-1H-pyrrolo[3,2-c]quinolin-1-yl]carbonyl}cyclohexyl)benzamide], with less than 1 nM.
Still for that read-out and setting: then `O=C(N[C@@H]1CCCC[C@@H]1C(=O)N1CC[C@@H]2[C@H](c3ncc[nH]3)Nc3ccccc3[C@@H]21)c1ccc(Cl)cc1` [Example 303, 4-Chloro-N-((1R,2S)-2-{[(3aR,4R,9bR)-4-(1H-imidazol-2-yl)-2,3,3a,4,5,9b-hexahydro-1H-pyrrolo[3,2-c]quinolin-1-yl]carbonyl}cyclohexyl)benzamide], with less than 1 nM; and `N#Cc1ccc(C(=O)N[C@@H]2CCCC[C@@H]2C(=O)N2CC[C@@H]3[C@H](c4ncc[nH]4)Nc4ccccc4[C@@H]32)cc1` [Example 304, 4-cyano-N-((1R,2S)-2-{[(3aR,4R,9bR)-4-(1H-imidazol-2-yl)-2,3,3a,4,5,9b-hexahydro-1H-pyrrolo[3,2-c]quinolin-1-yl]carbonyl}cyclohexyl)benzamide], with less than 1 nM.
`O=C(N[C@@H]1CCCC[C@@H]1C(=O)N1CC[C@@H]2[C@H](c3ncc[nH]3)Nc3ccccc3[C@@H]21)c1cccc(C(F)(F)F)c1` [Example 305, N-((1R,2S)-2-{[(3aR,4R,9bR)-4-(1H-Imidazol-2-yl)-2,3,3a,4,5,9b-hexahydro-1H-pyrrolo[3,2-c]quinolin-1-yl]carbonyl}cyclohexyl)-3-(trifluoromethyl)benzamide] returned an IC50 of less than 1 nM.
On the same count and under the same terms, for `NC(=O)c1ccc(C(=O)N[C@@H]2CCCC[C@@H]2C(=O)N2CC[C@@H]3[C@H](c4ncc[nH]4)Nc4ccccc4[C@@H]32)cc1` [Example 306, N-((1R,2S)-2-{[(3aR,4R,9bR)-4-(1H-Imidazol-2-yl)-2,3,3a,4,5,9b-hexahydro-1H-pyrrolo[3,2-c]quinolin-1-yl]carbonyl}cyclohexyl)terephthalamide] the value was less than 10 nM.
On the same count and under the same terms, for `N#Cc1ccc(NC(=O)N[C@@H]2CCCC[C@@H]2C(=O)N2CC[C@@H]3[C@H](c4ncc[nH]4)Nc4ccccc4[C@@H]32)cc1` [Example 307, N-(4-Cyanophenyl)-N′-((1R,2S)-2-{[(3aR,4R,9bR)-4-(1H-imidazol-2-yl)-2,3,3a,4,5,9b-hexahydro-1H-pyrrolo[3,2-c]quinolin-1-yl]carbonyl}cyclohexyl)urea] the value was less than 1 nM; for `N#Cc1cccc(C(=O)N[C@@H]2CCCC[C@@H]2C(=O)N2CC[C@@H]3[C@H](c4ncc[nH]4)Nc4ccccc4[C@@H]32)c1` [Example 308, 3-Cyano-N-((1R,2S)-2-{[(3aR,4R,9bR)-4-(1H-imidazol-2-yl)-2,3,3a,4,5,9b-hexahydro-1H-pyrrolo[3,2-c]quinolin-1-yl]carbonyl}cyclohexyl)benzamide], less than 1 nM; for `Cc1cc(C(=O)N[C@@H]2CCCC[C@@H]2C(=O)N2CC[C@@H]3[C@H](c4ncc[nH]4)Nc4ccccc4[C@@H]32)ccc1C#N` [Example 309, 4-Cyano-N-((1R,2S)-2-{[(3aR,4R,9bR)-4-(1H-imidazol-2-yl)-2,3,3a,4,5,9b-hexahydro-1H-pyrrolo[3,2-c]quinolin-1-yl]carbonyl}cyclohexyl)-3-methylbenzamide], less than 1 nM.
On the same count and under the same terms, for `O=C(N[C@@H]1CCCC[C@@H]1C(=O)N1CC[C@@H]2[C@H](c3ncc[nH]3)Nc3ccccc3[C@@H]21)c1ccc2[nH]nnc2c1` [Example 310, N-((1R,2S)-2-{[(3aR,4R,9bR)-4-(1H-Imidazol-2-yl)-2,3,3a,4,5,9b-hexahydro-1H-pyrrolo[3,2-c]quinolin-1-yl]carbonyl}cyclohexyl)-1H-1,2,3-benzotriazole-5-carboxamide] the value was less than 1 nM; for `O=C(N[C@@H]1CCCC[C@@H]1C(=O)N1CC[C@H]2[C@@H](c3ncc[nH]3)Nc3ccccc3[C@H]21)c1ccccc1` [Example 321, N-((1R,2S)-2-{[(3aS,4S,9bS)-4-(1H-Imidazol-2-yl)-2,3,3a,4,5,9b-hexahydro-1H-pyrrolo[3,2-c]quinolin-1-yl]carbonyl}cyclohexyl)benzamide], less than 10 nM; for `N#Cc1ccc(C(=O)N[C@@H]2CCCC[C@@H]2C(=O)N2CC[C@@H]3[C@H](c4ccc[nH]4)Nc4ccccc4[C@@H]32)cc1` [Example 322, 4-Cyano-N-((1R,2S)-2-{[(3aR,4R,9bR)-4-(1H-pyrrol-2-yl)-2,3,3a,4,5,9b-hexahydro-1H-pyrrolo[3,2-c]quinolin-1-yl]carbonyl}cyclohexyl)benzamide], less than 1 nM.
For the compound `NC(=O)c1ccc(C(=O)N[C@@H]2CCCC[C@@H]2C(=O)N2CC[C@@H]3[C@H](c4ccc[nH]4)Nc4ccccc4[C@@H]32)cc1` [Example 323, N-((1R,2S)-2-{[(3aR,4R,9bR)-4-(1H-Pyrrol-2-yl)-2,3,3a,4,5,9b-hexahydro-1H-pyrrolo[3,2-c]quinolin-1-yl]carbonyl}cyclohexyl)terephthalamide], the IC50 is less than 1 nM.
With `O=C(Nc1ccccc1)N[C@@H]1CCCC[C@@H]1C(=O)N1CCc2c(-c3ccccc3)nc3ccccc3c21` [Example 326, N-Phenyl-N′-{(1R,2S)-2-[(4-phenyl-2,3-dihydro-1H-pyrrolo[3,2-c]quinolin-1-yl)carbonyl]cyclohexyl}urea], the IC50 is less than 10 nM.
